Like-named read-outs stand apart in the source and are kept apart here. Where a SMILES comes first, the peptide text is derived from it. Bridges are numbered along the chain shown (N, C = ends). [ ]: non-standard residue; d: D form. The star is where a group is joined. hPhe(3-Cl-4-CF3) = N[C@@H](CCc1ccc(C(F)(F)F)c(Cl)c1)C(=O)O; NPrPhe(4-CF3) = CCCN[C@@H](Cc1ccc(C(F)(F)F)cc1)C(=O)O; NMeGly(cPent) = CN[C@H](C(=O)O)C1CCCC1; NMeD = CN[C@@H](CC(=O)O)C(=O)O; NMeL = CN[C@@H](CC(C)C)C(=O)O; Oxazolidin(3-yl) = C1CN(*)CO1; Ac5c = NC1(C(=O)O)CCCC1; Sar = CNCC(=O)O
Columns and labels:
[1] = target: GDP-bound KRAS wild-type protein (Homo sapiens, UniProt P01116); test: Binding to KRAS by surface plasmon resonance (SPR), Single Cycle Kinetics
Sequence of GDP-bound KRAS wild-type protein (P01116 whole entry): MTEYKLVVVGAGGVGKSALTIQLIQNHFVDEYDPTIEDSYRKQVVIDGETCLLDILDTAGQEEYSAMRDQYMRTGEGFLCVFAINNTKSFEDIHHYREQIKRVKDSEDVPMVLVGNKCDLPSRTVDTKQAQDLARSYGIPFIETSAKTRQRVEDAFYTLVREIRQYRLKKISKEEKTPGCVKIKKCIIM

[2] = system: human lung cancer strain NCI-H441;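 also: cell proliferation inhibition after four days measured by CellTiter-Glo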
[3] = target: GDP-bound NRAS wild-type protein (Homo sapiens, UniProt P01111); test: Binding to NRAS by surface plasmon resonance (SPR), Single Cycle Kinetics
Sequence of GDP-bound NRAS wild-type protein (P01111 whole entry): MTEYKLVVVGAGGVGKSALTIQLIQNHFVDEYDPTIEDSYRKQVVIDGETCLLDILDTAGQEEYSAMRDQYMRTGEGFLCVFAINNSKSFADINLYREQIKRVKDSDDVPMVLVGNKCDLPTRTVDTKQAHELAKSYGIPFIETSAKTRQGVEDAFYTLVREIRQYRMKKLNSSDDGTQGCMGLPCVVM

[4] = target: GDP-bound HRAS wild-type protein (Homo sapiens, UniProt P01112); test: Binding to HRAS by surface plasmon resonance (SPR), Single Cycle Kinetics
Sequence of GDP-bound HRAS wild-type protein (P01112 whole entry): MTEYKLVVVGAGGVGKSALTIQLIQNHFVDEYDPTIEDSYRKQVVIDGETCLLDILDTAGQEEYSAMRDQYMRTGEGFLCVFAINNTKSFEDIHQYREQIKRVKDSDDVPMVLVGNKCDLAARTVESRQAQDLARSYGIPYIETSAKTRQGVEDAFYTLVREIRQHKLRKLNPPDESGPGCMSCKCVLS

[5] = SPR Single Cycle Kinetics, GDP-bound KRAS wild-type protein, 1:1 binding model, read-out: KRAS KD
[6] = SPR, GDP-bound NRAS wild-type protein vs GDP-bound KRAS wild-type protein
[7] = SPR, GDP-bound HRAS wild-type protein vs GDP-bound KRAS wild-type protein

| Kd [1, 5] | IC50 [2] | SMILES | NRAS/KRAS (ratio of KD value with respect to NRAS to KD value with respect to KRAS) [3, 6] | HRAS/KRAS (ratio of KD value with respect to HRAS to KD value with respect to KRAS) [4, 7] | NRAS/KRAS (ratio of KD value with respect to GDP-bound NRAS wild-type protein to KD value with respect to KRAS) ([3]; SPR KD ratio NRAS/KRAS, class symbols) | HRAS/KRAS (ratio of KD value with respect to GDP-bound HRAS wild-type protein to KD value with respect to KRAS) ([4]; SPR KD ratio HRAS/KRAS, class symbols) | Kd ([1]; SPR, Single Cycle Kinetics, 1:1 binding model, read-out: KD value with respect to GDP-bound KRAS wild-type protein) | Kd ([1]; SPR, Single Cycle Kinetics, GDP-bound KRAS wild-type protein, read-out: KRAS KD) | IC50 ([2]; read-out: NCI-H441 cell proliferation inhibitory activity, 50% proliferation inhibitory concentration (IC50 value), NCI-H441, four days, CellTiter-Glo) | NRAS/KRAS (ratio of KD value for NRAS to KD value for KRAS) [3, 6] | ratio of the KD value with respect to GDP-bound NRAS wild-type protein to the KD value with respect to KRAS ([3]; SPR, KD(NRAS)/KD(KRAS)) | HRAS/KRAS (ratio of KD value for HRAS to KD value for KRAS) [4, 7] | ratio of the KD value with respect to GDP-bound HRAS wild-type protein to the KD value with respect to KRAS ([4]; SPR, KD(HRAS)/KD(KRAS)) |
| --- | --- | --- | --- | --- | --- | --- | --- | --- | --- | --- | --- | --- | --- |
| 140 pM | 17000 pM | CCO[C@@H]1C[C@H]2C(=O)NC3(CCC3)C(=O)N(C)[C@@H](C3CCCC3)C(=O)N(CCC3CCCC3)[C@H](C(=O)N(C)C)CC(=O)N(C)[C@@H](CC)C(=O)N[C@@H]([C@@H](C)CC)C(=O)N(C)CC(=O)N(C)[C@H]3CCCCN(C3=O)[C@@H](Cc3ccc(C(F)(F)F)cc3)C(=O)N(C)CC(=O)N[C@@H](CCc3cc(F)c(C(F)(F)F)c(F)c3)C(=O)N2C1 [PP0646] | C (A compound having a KD ratio of 0.1 or more and less than 3 is denoted as C) | B (a compound having 3 or more and less than 10 is denoted as B) | – | – | – | – | – | – | – | – | – |
| 700 pM | 180000 pM | CCOC[C@H]1C(=O)N[C@@H]([C@@H](C)CC)C(=O)N(C)CC(=O)N(C)[C@H]2C/C=C\CCN(C2=O)[C@@H](Cc2ccc(C(F)(F)F)cc2)C(=O)N(C)CC(=O)N[C@@H](CCc2ccc(C(F)(F)F)c(OC)c2)C(=O)N2C[C@H](OCC)C[C@H]2C(=O)NC2(CC(C)(C)C2)C(=O)N(C)[C@@H](CC2CCC2)C(=O)N(C)[C@H](C(=O)N(C)C)CC(=O)N1C [PP2765] | – | – | A (a compound having 10 or more and less than 20 is denoted as A) | A (a compound having 10 or more and less than 20 is denoted as A) | – | – | – | – | – | – | – |
| – | – | CCC[C@H]1C(=O)N[C@@H]([C@@H](C)CC)C(=O)N(C)CC(=O)N(C)[C@H]2C/C=C\CCN(C2=O)[C@@H](Cc2ccc(C)cc2)C(=O)N(C)CC(=O)N[C@@H](CCc2cc(F)c(C(F)(F)F)c(F)c2)C(=O)N2C[C@H](OCC)C[C@H]2C(=O)N(C)C2(CCC2)C(=O)N(C)[C@@H](C2CCCC2)C(=O)N(C)[C@H](C(=O)N2CCCCC2)CC(=O)N1C [PP3119, (2S,8S,12R,14S,20S,23S,27S,30S,36S,38Z)-20-cyclopentyl-8-[2-[3,5-difluoro-4-(trifluoromethyl)phenyl]ethyl]-12-ethoxy-4,16,19,22,26,32,35-heptamethyl-30-[(1S)-1-methylpropyl]-23-(piperidine-1-carbonyl)-27-propyl-2-(p-tolylmethyl)spiro[1,4,7,10,16,19,22,26,29,32,35-undecazatricyclo[34.5.1.0^10,14]dotetracont-38-ene-17,1′-cyclobutane]-3,6,9,15,18,21,25,28,31,34,42-undecone] | – | – | – | – | 90 pM | 90 pM | 3500 pM | A (a compound having 10 or more and less than 20 is denoted as A) | A (a compound having 10 or more and less than 20 is denoted as A) | A (a compound having 10 or more and less than 20 is denoted as A) | A (a compound having 10 or more and less than 20 is denoted as A) |
| 150 pM | 5200 pM | CCCN1C(=O)CN(C)C(=O)CN(C)C(=O)[C@H]([C@@H](C)CC)NC(=O)[C@H](CC(C)C)N(C)C(=O)C[C@@H](C(=O)N2CCOC2)N(C)C(=O)[C@H](C2CCCC2)N(C)C(=O)C2(CCCC2)NC(=O)[C@@H]2CCCN2C(=O)[C@H](CCc2ccc(C(F)(F)F)c(Cl)c2)NC(=O)CN(C)C(=O)[C@@H]1Cc1ccc(C(F)(F)F)cc1 [PP0174] ([NMeL]I[Sar][Sar][NPrPhe(4-CF3)][Sar][hPhe(3-Cl-4-CF3)]P[Ac5c][NMeGly(cPent)][NMeD]-{Oxazolidin(3-yl)}; lactam N-11) | – | – | – | – | – | – | – | B (a compound having 3 or more and less than 10 is denoted as B) | – | B (a compound having 3 or more and less than 10 is denoted as B) | – |

From patent US20240158446A1, “CYCLIC COMPOUND HAVING SELECTIVE INHIBITORY ACTION ON KRAS OVER HRAS AND NRAS” (CHUGAI SEIYAKU KABUSHIKI KAISHA, priority 2021, published 2024)
